Columns and labels:
[1] = Metabolic stability in rat liver microsomes; assay type: in vitro ADME
From the text: Metabolic stability of test compounds was studied in rat liver microsomes.

in vitro [2] = assay type: in vitro ADME; conditions: dog, microsomes
From the text: Metabolic stability of test compounds was studied in dog liver microsomes.

mouse plasma proteins = experiment: Plasma protein binding by equilibrium dialysis, mouse plasma; assay type: in vitro ADME; conditions: fraction unbound
Method: (§1) In assays to estimate binding of test compounds to plasma proteins, test compound solutions (5 μM) are prepared in buffer and species-specific plasma (final DMSO concentration 0.5%). The plasma-containing solution is added to one side of the membrane of an equilibrium dialysis system, and the plasma-free is added to the other side. Dialysis was allowed to reach equilibrium by incubation for two hours at 37° C. The concentration of compound on both sides of the membrane was measured using LC-MS/MS.

rat plasma proteins = experiment: Plasma protein binding by equilibrium dialysis, rat plasma; assay type: in vitro ADME; conditions: fraction unbound
Method: as §1

hERG = hERG (Homo sapiens (Human), UniProt Q12809); experiment: hERG current (IKr) in HEK-293 cells, whole-cell patch clamp; assay type: cell-based; conditions: for Mean % inhibition ± SEM (Block of hERG at 0.1 Hz): HEK-293 cells
Method: Currents were measured using the whole-cell variant of the patch clamp method. Glass pipettes were produced with tip openings of […] for K current recordings. Pipette tip resistance was approximately 1.0 to 2.0 MΩ when filled with K internal solutions (130 mM KCl, 5 mM MgCl2, 10 mM HEPES, 5 mM EGTA, 5 mM ATP-Na2, pH7.2). An Axopatch 1-B amplifier (Axon Instruments, Foster City, Calif.) was used for whole-cell voltage clamping. Voltage clamp pulses were controlled by pClamp software (ver 9.2, Axon Instruments).
After rupture of the cell membrane, current kinetics and amplitudes were allowed to stabilize as the cell was dialyzed with internal solution and paced at 0.1 Hz (−75 mV; 500 msec, +10 mV; 500 msec, −40 mV; typically 2-4 minutes). Currents were considered stable if the currents elicited by a series of voltage pulses given at 0.1 Hz were superimposed. Peak hERG current was measured as the maximum outward deflection of the tail current elicited upon return to −40 mV.
Data are presented in Table 19 as the percent reduction of current amplitude. This was measured as current reduction after a steady-state effect had been reached in the presence of drug relative to current amplitude before drug was introduced (control). Each cell served as its own control.

monkey plasma proteins = experiment: Plasma protein binding by equilibrium dialysis, monkey plasma; assay type: in vitro ADME; conditions: fraction unbound
Method: as §1

human hepatocytes = experiment: Metabolic stability in cryopreserved human hepatocytes; conditions: human hepatocytes, 0.1 uM, up to four hours
How it was run: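 Test compounds at 0.1 μM or 3 μM incubated with cryopreserved human hepatocytes at 0.5×10^6 viable cells/mL. Sampling up to four hours (0.1 μM) or one or two hours (3 μM), methanol quench, then remaining parent measured by cassette LC-MS/MS.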

beagle dog hepatocytes = experiment: Metabolic stability in beagle dog hepatocytes; assay type: in vitro ADME; conditions: 0.1 uM
in vitro [3] = assay type: in vitro ADME; conditions: monkey, microsomes
From the text: Metabolic stability of test compounds was studied in monkey liver microsomes.

Chain of hERG (Q12809 whole entry): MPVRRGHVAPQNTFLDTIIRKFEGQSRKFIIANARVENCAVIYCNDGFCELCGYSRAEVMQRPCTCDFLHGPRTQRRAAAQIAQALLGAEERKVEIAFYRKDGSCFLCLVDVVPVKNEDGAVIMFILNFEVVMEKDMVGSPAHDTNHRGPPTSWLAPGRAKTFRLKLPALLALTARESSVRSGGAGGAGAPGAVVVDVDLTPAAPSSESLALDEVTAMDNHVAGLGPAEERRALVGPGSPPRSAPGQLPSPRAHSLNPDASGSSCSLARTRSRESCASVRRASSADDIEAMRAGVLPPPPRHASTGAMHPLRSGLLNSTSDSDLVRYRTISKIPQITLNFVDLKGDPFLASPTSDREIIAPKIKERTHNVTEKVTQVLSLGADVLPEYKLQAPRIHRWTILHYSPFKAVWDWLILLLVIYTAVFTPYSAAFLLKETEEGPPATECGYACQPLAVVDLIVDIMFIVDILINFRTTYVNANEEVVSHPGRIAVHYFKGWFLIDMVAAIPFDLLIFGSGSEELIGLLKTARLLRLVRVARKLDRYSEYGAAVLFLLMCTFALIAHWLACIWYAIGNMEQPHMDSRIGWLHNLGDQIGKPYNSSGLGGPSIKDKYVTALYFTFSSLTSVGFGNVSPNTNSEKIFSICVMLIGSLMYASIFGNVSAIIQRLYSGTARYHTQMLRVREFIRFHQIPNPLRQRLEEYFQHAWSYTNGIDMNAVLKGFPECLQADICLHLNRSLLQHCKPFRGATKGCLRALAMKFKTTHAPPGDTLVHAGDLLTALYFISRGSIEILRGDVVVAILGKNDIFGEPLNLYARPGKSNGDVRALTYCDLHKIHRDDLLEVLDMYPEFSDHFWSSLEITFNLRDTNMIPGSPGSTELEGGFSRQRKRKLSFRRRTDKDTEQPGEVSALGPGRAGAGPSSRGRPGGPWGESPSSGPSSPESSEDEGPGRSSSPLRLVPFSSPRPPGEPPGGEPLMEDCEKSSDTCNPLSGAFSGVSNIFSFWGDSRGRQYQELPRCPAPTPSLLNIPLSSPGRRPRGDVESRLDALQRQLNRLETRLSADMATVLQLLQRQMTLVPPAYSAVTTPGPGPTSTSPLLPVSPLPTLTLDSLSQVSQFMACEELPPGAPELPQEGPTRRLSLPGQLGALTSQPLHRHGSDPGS

**Q.** Which t½ [1] does the source give for `COCCOCCOCCOCCOCCOCCOC(=O)NC(C(=O)NC(Cc1ccccc1)C(O)CN(Cc1ccc(-c2ccccn2)cc1)NC(=O)C(NC(=O)OC)C(C)(C)C)C(C)(C)C` (stereo not shown) [mono-mPEG6-Atazanavir] here?
**A.** 1.73 h

**Q.** What about the Clint (in vitro [2]) of the same molecule?
**A.** 67.1 μL/min/mg protein

**Q.** And the t1/2 (in vitro [2])?
**A.** 0.345 h

**Q.** What about the “Mouse Plasma Protein Binding Fu ± SD” value (mouse plasma proteins) of the same molecule?
**A.** 0.159 ± 0.0167

**Q.** What about the “Rat Plasma Protein Binding Fu ± SD” value (rat plasma proteins) of the same molecule?
**A.** 0.451 ± 0.0385

**Q.** What about the “Mean % inhibition ± SEM (Block of hERG at 0.1 Hz)” value (“Mean % inhibition ± SEM” for short) (hERG; 10 μM) of the same molecule?
**A.** 4.4 ± 0.4%

**Q.** What about the “Mean % inhibition ± SEM” value (hERG; 30 μM) of the same molecule?
**A.** 12.7 ± 1.3%

**Q.** And the “Mean % inhibition ± SEM” value (hERG; 100 μM)?
**A.** 26.0 ± 1.0%

**Q.** What about the IC50 (hERG; hERG current in HEK-293 cells, whole-cell patch clamp, 0.1 Hz, read-out: IC50 (Block of hERG at 0.1 Hz)) of the same molecule?
**A.** > 100 µM

**Q.** What about the “Monkey Plasma Protein Binding Fu ± SD” value (monkey plasma proteins) of the same molecule?
**A.** 0.598 ± 0.00839

**Q.** What about the “CLint ± SEM” value (human hepatocytes) of the same molecule?
**A.** 0.778 ± 0.000211 μL/min/10^6 cells

**Q.** What about the t1/2 (human hepatocytes) of the same molecule?
**A.** 29.68 h

**Q.** And the “CLint ± SEM” value (beagle dog hepatocytes)?
**A.** 0.209 ± 0.000143 μL/min/10^6 cells

**Q.** And the t1/2 (beagle dog hepatocytes)?
**A.** 110.6 h

**Q.** And the Clint (in vitro [3])?
**A.** 238 μL/min/mg protein

**Q.** What about the t½ (in vitro [3]) of the same molecule?
**A.** 1.73 h
